Measured values published in patent publication US10925858B2, “S-nitrosoglutathione (GSNO) and GSNO reductase inhibitors for use in therapy” (MUSC FOUNDATION FOR RESEARCH DEVELOPMENT, priority 2017, dated 2021).

Assays:
[1] = test system: protein-associated 3-nitrotyrosine; assay: Assay for protein-associated nitrotyrosine in hBMVECs; type: cell-based, human; conditions: thrombin 0.1 unit/ml 20 min; L-NIO or FeTPPS 10 μM pretreated 30 min; ELISA
Description: (§1) Cell culture: Primary human brain microvascular endothelial cells (hBMVECs) were purchased from Angio-Proteomie (Cat #: cAP-0002, Atlanta, Ga.). The cells were cultured in cell culture flasks or plates precoated with Quick Coating Solution (Angio-Proteomie; Cat #: cAP-01) and maintained in Endothelial Growth Medium (Angio-Proteomie; Cat #: cAP-02) at 37° C. under 5% CO2/95% air. When the cells were almost confluent, the medium was replaced with endothelial basal medium (Angio-Proteomie; Cat #: cAP-03) containing 0.5% fetal bovine serum (FBS; Life Technologies, Grand Island, N.Y.) about 8-12 hours before the experiment. No institutional approval was required for this study. The study was not pre-registered.
Cellular levels of protein-associated 3-nitrotyrosine were analyzed by ELISA Kit (Abeam, Cat #: ab116691) and Western blot analysis using antibody specific to 3-nitrotyrosine (Abeam, Cat #: ab61392). For the ELISA, hBMVECs were lysed in extraction buffer provided with the kit followed by centrifugation at 16,000×g 4° C. The cell lysate supernatants were subjected to protein quantification with Bio-Rad DC protein assay kit (Bio-Rad, Hercules, Calif.) and the equal amounts of proteins (500 μg) were loaded onto 96 well microplate coated with 3-nitrotyrosine capture antibody and followed by incubation with biotin-conjugated 3-nitrotyrosine detector antibody. Following washing, the plates were incubated with HRP-conjugated streptoavidin and the levels of 3-nitrotyrosine were measured by incubation with 3,3′,5,5′-tetramethylbenzidine solution and colorimetric analysis at […] using SpectraMax 190 Microplate Reader (Molecular Devices, Sunnyvale, Calif.). For analysis of degree of RhoA tyrosine nitration, the cell lysates were immunoprecipiated with antibody specific to 3-nitrotyrosine (Abeam) and the levels of tyrosine nitrated RhoA were analyzed by Western analysis for RhoA.

[2] = test system: tight junction proteins (ZO-1, Occludin, Claudin-5); assay: Real-time PCR, mRNA expression of tight junction proteins in brain microvessels of diabetic mice; type: in vivo
Description: Male laca mice weighing between 28-32 g were procured from the Central Animal House, Panjab University, Chandigarh. The animals were acclimatized and were fed with standard pellet diet and water ad libitum. The experimental protocols were approved by the Institutional Ethics Committee and were conducted according to Indian National Science Academy (INSA) guidelines for the use and care of experimental animals. The animals were divided into four groups: (i) Control animals received phosphate buffered saline (PBS) throughout the study; (ii) Control+GSNO animals were administered with GSNO 100 μg/kg body weight orally, dissolved in PBS after every 24 h for 8 weeks; (iii) Diabetic animals were injected with STZ at a dose of 40 mg/kg body weight intraperitoneally for 5 days dissolved in 0.1 mol/L citrate buffer, pH 4.5 and Diabetic+GSNO mice were administered GSNO 100 μg/kg body weight orally dissolved in PBS after every 24 h for 8 weeks after the induction of diabetes. Animals were assessed weekly for development of diabetic encephalopathy in terms of memory deficits. All experimental procedures were done on mice at the end of study.
The microvessels were isolated by the method described by Brooks et al., (2005). Brain tissue was homogenized in microisolation buffer (103 mM NaCl, 4.7 mM KCl, 2.5 mM CaCb, 1.2 mM KH2PO4, 1.2 mM MgSO4, 15 mM HEPES, 2.5 mM NaHCO3, 10 mM D-glucose, 1 mM sodium pyruvate and 10 g/L dextran (64,000 mol wt), pH 7.4) and equal amount of 26% (w/v) dextran was added. […]
(§2) PCR Total RNA was extracted from microvessels obtained from brain tissue using TriReagent®. […] The concentration of RNA obtained was determined by 260/280 nm ratio using a Nanodrop™ Spectrophotometer (Nanodrop™ 1000, Thermo Scientific®, Waltham, USA). The integrity and overall quality of RNA was evaluated using agarose gel electrophoresis. […] The data obtained was analyzed by the LightCycler 480 Software, Version 1.5. […] Glyceraldehyde-3-phosphate dehydrogenase was used as the reference gene and the relative gene expression was determined using delta-delta Ct method as described by Pfaffl et al., (2002).

[3] = test system: cell adhesion molecules (ICAM-1 and VCAM-1); assay: Real-time PCR, mRNA expression of cell adhesion molecules in diabetic mice; type: in vivo; conditions: cortex and hippocampus, GSNO supplemented diabetic animals
Description: Male laca mice weighing between 28-32 g were procured from the Central Animal House, Panjab University, Chandigarh. The animals were acclimatized and were fed with standard pellet diet and water ad libitum. The experimental protocols were approved by the Institutional Ethics Committee and were conducted according to Indian National Science Academy (INSA) guidelines for the use and care of experimental animals. […] Animals were assessed weekly for development of diabetic encephalopathy in terms of memory deficits. […]
as §2

[4] = test system: hBMVECs; assay: Assay for F-actin stress fiber development in thrombin treated hBMVECs; type: cell-based, human; conditions: thrombin 0.1 unit/ml 30 min; GSNO 100 μM or SIN-1 100 μM pretreated 2 hr
Description: as §1
Assay for F-actin stress fiber development and endothelial cell contraction: hBMVECs were cultured on fibronectin-coated chamber slides (BD Bioscience). Following drug treatments, the cells were fixed with 4% (wt/vol) paraformaldehyde, permeabilized by the addition of 0.25% Triton X-100, and blocked by 2% bovine serum albumin (BSA) in phosphate buffered saline (PBS). […] The density of fluorescence was analyzed by ImageJ (NIH, Bethesda, Md.).

[5] = cortex and hippocampus, diabetic mice + GSNO 100 μg/kg oral 8 weeks, vs diabetic

SMILES	thrombin-induced 3-nitrotyrosine levels [1]	mRNA expression of claudin-5 ([2]; GSNO treated diabetic animals)	mRNA expression of ZO-1 [2, 5] [fold]	mRNA expression of occludin [2, 5] [fold]	mRNA expression of ICAM-1 [3]	thrombin-induced development of F-actin stress fiber formation [4]
Cl.O=S(=O)([O-])c1ccc(-c2c3nc(c(-c4ccc(S(=O)(=O)O)cc4)c4ccc([nH]4)c(-c4ccc(S(=O)(=O)O)cc4)c4nc(c(-c5ccc(S(=O)(=O)O)cc5)c5ccc2[nH]5)C=C4)C=C3)cc1.[Fe] [FeTPPS, 5,10,15,20-Tetrakis(4-sulfonatophenyl)porphyrinato Iron (III), Cl, reference compound]	inhibited	–	–	–	–	–
N[C@@H](CCC(=O)N[C@@H](CSN=O)C(=O)NCC(=O)O)C(=O)O [GSNO, S-nitrosoglutathione]	–	no significant change	2	2	comparable to control levels	inhibited
